Broadly, the EC50 is the concentration needed to bring the measured effect to its halfway point. High values mean a less potent agent, low ones a more potent agent.

We go through twelve compounds from patent US7517884B2 (Kalypsys Inc., priority 1998, dated 2009).

One assay addresses T1, PPAR-alpha (UniProt Q07869).
T1 sequence (Q07869 1-468): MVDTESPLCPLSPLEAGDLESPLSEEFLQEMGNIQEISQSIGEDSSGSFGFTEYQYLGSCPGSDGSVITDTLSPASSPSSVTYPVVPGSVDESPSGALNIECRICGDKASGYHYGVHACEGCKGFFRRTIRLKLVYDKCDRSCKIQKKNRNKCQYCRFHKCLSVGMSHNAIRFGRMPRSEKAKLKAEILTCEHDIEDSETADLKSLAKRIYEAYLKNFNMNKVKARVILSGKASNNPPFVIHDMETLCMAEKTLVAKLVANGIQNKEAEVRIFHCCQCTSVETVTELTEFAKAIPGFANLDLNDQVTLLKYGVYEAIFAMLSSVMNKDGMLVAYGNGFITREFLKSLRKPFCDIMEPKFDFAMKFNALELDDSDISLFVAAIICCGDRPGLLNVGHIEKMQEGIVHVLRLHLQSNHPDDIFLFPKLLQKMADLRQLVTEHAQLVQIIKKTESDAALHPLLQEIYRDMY
The experiment in a line: PPAR-alpha transactivation assay (GAL4 chimera, luciferase reporter) in CV-1 cells. The format is cell-based, murine and human. The note with it: GAL4-PPAR LBD chimera. Summed up: (§1)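 CV-1 cells transiently transfected with murine or human PPAR-alpha, -gamma or -delta ligand-binding domain fused to GAL4 DNA-binding domain plus a GAL4-site luciferase reporter. After replating in phenol-red-free DME with 5% delipidated calf serum, cells were exposed to compound 20-24 h; luciferase read-out gave EC50.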

For another assay, the target named is T2, PPAR-delta (UniProt Q03181).
T2 sequence (Q03181 1-441): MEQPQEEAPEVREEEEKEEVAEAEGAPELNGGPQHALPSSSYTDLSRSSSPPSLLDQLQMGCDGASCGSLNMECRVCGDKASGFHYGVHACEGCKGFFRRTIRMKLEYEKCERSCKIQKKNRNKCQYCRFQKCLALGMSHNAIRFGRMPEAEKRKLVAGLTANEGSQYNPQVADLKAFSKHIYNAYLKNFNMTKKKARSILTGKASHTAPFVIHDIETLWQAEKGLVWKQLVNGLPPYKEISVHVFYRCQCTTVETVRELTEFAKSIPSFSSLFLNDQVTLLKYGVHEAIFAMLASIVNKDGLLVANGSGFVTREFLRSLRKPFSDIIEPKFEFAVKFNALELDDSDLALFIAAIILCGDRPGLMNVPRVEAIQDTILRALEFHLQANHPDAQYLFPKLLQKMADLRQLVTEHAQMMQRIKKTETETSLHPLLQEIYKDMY
The assay is described as follows: PPAR-delta transactivation assay (GAL4 chimera, luciferase reporter) in CV-1 cells. In kind it is cell-based, murine and human. Particulars: GAL4-PPAR LBD chimera. Summed up:
as §1
(In general: Reporter assays use an easily measured gene product as a stand-in for the process of interest.)

The target of a further assay is T3, PPAR-gamma (UniProt P37231).
T3 sequence (P37231 1-505): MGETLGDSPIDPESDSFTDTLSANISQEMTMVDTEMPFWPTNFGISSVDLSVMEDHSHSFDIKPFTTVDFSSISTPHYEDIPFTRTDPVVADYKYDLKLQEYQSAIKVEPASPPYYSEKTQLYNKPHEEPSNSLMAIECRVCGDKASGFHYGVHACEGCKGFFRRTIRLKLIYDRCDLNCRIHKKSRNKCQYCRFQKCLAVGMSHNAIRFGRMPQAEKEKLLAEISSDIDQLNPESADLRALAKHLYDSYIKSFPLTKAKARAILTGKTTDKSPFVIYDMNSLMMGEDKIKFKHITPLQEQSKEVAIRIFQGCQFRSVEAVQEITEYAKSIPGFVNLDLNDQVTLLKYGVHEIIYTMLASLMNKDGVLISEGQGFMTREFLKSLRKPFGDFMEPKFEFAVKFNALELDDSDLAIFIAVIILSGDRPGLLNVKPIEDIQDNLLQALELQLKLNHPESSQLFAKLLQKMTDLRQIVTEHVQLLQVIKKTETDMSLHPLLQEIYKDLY
The assay is described as follows: PPAR-gamma transactivation assay (GAL4 chimera, luciferase reporter) in CV-1 cells. In kind it is cell-based, murine and human. The note with it: GAL4-PPAR LBD chimera. The essentials: as §1

Assay [1] deals with Diet-Induced Obesity (DIO) in Mice. The experiment in a line: Model of Diet-Induced Obesity (DIO) in mice, dose ranging study. In kind it is in vivo, C57B1/6j mice. Particulars: HFD, 1.5 mg/kg BID. The text has this:
Evaluation of Pharmacological Efficacy of a Compound of the Invention in a Model of Diet-Induced Obesity (DIO) in Mice
Metabolic syndrome in humans is characterized by abdominal obesity, high triglycerides, impaired fasting glucose and hyperinsulinemia. In the DIO model, mice are fed high fat diet (HFD, Research diet D12492, Research Diet, NJ) diet (58% lard) for the entire period of the study. Compared to normal chow (NC, Harlan-Tekland #8604, WI) fed animals the HF fed mice develop several features of metabolic syndrome such as, hypertriglyceridemia, hyperinsulinemia and mild hyperglycemia, as early as two weeks, on this diet. […] This model was used to evaluate the pharmacological effects of a compound of the invention selected from the group consisting of Examples 1-141 (referred to for the purposes of this study as “Compound (I)”) in mitigating several features of HFD induced metabolic syndrome in rodents.
C57B1/6j mice (n=5) were fed ad libitum with either the HFD (58% fat) or NC (5%) diet for 3 weeks prior to start of experiment, and throughout the course of the experiment (45 days). Starting on Day 1, mice were dosed BID with either Compound (I)+vehicle, vehicle alone, or GW501516, a known PPARδ modulator in clinical development by Glaxo-Wellcome, for the entire period of the study. Animals were the assessed for body weight gain, food intake, triglyceride (TG), insulin, and glucose levels under fasting and postprandial (PP) conditions. Animals were weighed twice weekly in the morning to determine body weight gain. Plasma or serum was separated from whole blood (Sarstedt) and TG levels were assayed with a TG kit (Thermo Electron Corporation, TX). Plasma insulin levels were assayed using the ultrasensitive mouse Insulin ELISA immunoassay (American Laboratory Products Company). Total cholesterol, HDLc and LDLc was measured to evaluate pharmacological efficacy at various time points during the study and serum transaminases were measured to evaluate any potential toxicity of the compound. These measurements were performed with a chemistry analyzer at Labcorp of America, NC.

The structures appear in SMILES notation. Bounds are passed on as bounds.

Turning to `C[C@@H]1CN(c2cc(F)cc(F)c2Cl)C[C@H](C)N1S(=O)(=O)c1cccc2c1CC(C(=O)O)C2` (stereo partly drawn) [Example 123, 4-(4-(2-Chloro-3,5-difluorophenyl)-cis-2,6-dimethylpiperazin-1-ylsulfonyl)-2,3-dihydro-1H-indene-2-carboxylic acid], the EC50 at PPAR-alpha is over 100 µM; on PPAR-delta it was 5 to 100 µM; on PPAR-gamma, over 100 µM.
Take `C[C@@H]1CN(c2cc(F)c(Cl)c(F)c2)C[C@H](C)N1S(=O)(=O)c1cccc2c1CC(C(=O)O)C2` (stereo partly drawn) [Example 124, 4-(4-(4-Chloro-3,5-difluorophenyl)-cis-2,6-dimethylpiperazin-1-ylsulfonyl)-2,3-dihydro-1H-indene-2-carboxylic acid]: the results for the EC50 on PPAR-alpha, on PPAR-delta and on PPAR-gamma were over 100 µM, under 5 µM and over 100 µM, respectively.
`O=C(O)C1Cc2cccc(S(=O)(=O)N3C4CSCC3CN(c3ccc(OC(F)(F)F)cc3)C4)c2C1` (stereo not drawn) [Example 125, 4-(7-(4-(Trifluoromethoxy)phenyl)-3-thia-7,9-diazabicyclo|3.3.1|nonan-9-ylsulfonyl)-2,3-dihydro-1H-indene-2-carboxylic acid]: the EC50 on PPAR-alpha was over 100 µM; on PPAR-delta, under 5 µM; on PPAR-gamma, over 100 µM.
With `C[C@@H]1CN(c2ccc(Cl)cc2)C[C@H](C)N1S(=O)(=O)c1cccc2c1CC(C(=O)O)C2` (stereo partly drawn) [Example 126, 4-[4-(4-Chlorophenyl)-cis-2,6-dimethylpiperazin-1-ylsulfonyl]-2,3-dihydro-1H-indene-2-carboxylic acid], the EC50 on PPAR-alpha is over 100 µM; on PPAR-delta, under 5 µM; at PPAR-gamma, over 100 µM.
Regarding `C[C@@H]1CN(c2ccc(Cl)c(OC(F)(F)F)c2)C[C@H](C)N1S(=O)(=O)c1cccc2c1CC(C(=O)O)C2` (stereo partly drawn) [Example 131, 4-|4-(4-Chloro-3-trifluoromethoxyphenyl)-cis-2,6-dimethylpiperazine-1-ylsulfonyl|-2,3-dihydro-1H-indene-2-carboxylic acid], the EC50 on PPAR-alpha is over 100 µM; at PPAR-delta, under 5 µM; on PPAR-gamma, over 100 µM.
Take `C[C@@H]1CN(c2ccc(Cl)c(F)c2)C[C@H](C)N1S(=O)(=O)c1cccc2c1CC(C(=O)O)C2` (stereo partly drawn) [Example 132, 4-|4-(4-Chloro-3-fluorophenyl)-cis-2,6-dimethylpiperazin-1-ylsulfonyl|-2,3-dihydro-1H-indene-2-carboxylic acid]: the EC50 on PPAR-alpha is over 100 µM; on PPAR-delta, under 5 µM; on PPAR-gamma, over 100 µM.
For the compound `COc1cc(N2C[C@@H](C)N(S(=O)(=O)c3cccc4c3CC(C(=O)O)C4)[C@@H](C)C2)ccc1Cl` (stereo partly drawn) [Example 133, 4-|4-(4-Chloro-3-methoxyphenyl)-cis-2,6-dimethylpiperazine-1-ylsulfonyl|-2,3-dihydro-1H-indene-2-carboxylic acid], the EC50 at PPAR-alpha was over 100 µM; on PPAR-delta it was under 5 µM; on PPAR-gamma it was over 100 µM.
Consider `C[C@@H]1CN(c2ccc(Cl)c(C(F)(F)F)c2)C[C@H](C)N1S(=O)(=O)c1cccc2c1CC(C(=O)O)C2` (stereo partly drawn) [Example 134], for which the values for the half-maximal effective concentration (EC50) on PPAR-alpha, on PPAR-delta and at PPAR-gamma were over 100 µM, under 5 µM and over 100 µM, respectively.
For `Cc1cc(N2C[C@@H](C)N(S(=O)(=O)c3cccc4c3CC(C(=O)O)C4)[C@@H](C)C2)ccc1Cl` (stereo partly drawn) [Example 135, 4-|4-(4-Chloro-3-methylphenyl)-cis-2,6-dimethylpiperazin-1-ylsulfonyl|-2,3-dihydro-1H-indene-2-carboxylic acid], the EC50 on PPAR-alpha was over 100 µM; at PPAR-delta it was under 5 µM; on PPAR-gamma, over 100 µM.
In the case of `CCc1ccc(N2C[C@@H](C)N(S(=O)(=O)c3cccc4c3CC(C(=O)O)C4)[C@@H](C)C2)cc1` (stereo partly drawn) [Example 136, 4-|4-(4-Ethylphenyl)-cis-2,6-dimethylpiperazin-1-ylsulfonyl|-2,3-dihydro-1H-indene-2-carboxylic acid], the EC50 was over 100 µM on PPAR-alpha, under 5 µM at PPAR-delta and over 100 µM on PPAR-gamma.
Consider `Cc1ccc(N2C[C@@H](C)N(S(=O)(=O)c3cccc4c3CC(C(=O)O)C4)[C@@H](C)C2)cc1C` (stereo partly drawn) [Example 137, 4-|4-(3,4-Dimethylphenyl)-cis-2,6-dimethylpiperazin-1-ylsulfonyl|-2,3-dihydro-1H-indene-2-carboxylic acid], for which the EC50 is over 100 µM at PPAR-alpha, under 5 µM on PPAR-delta and over 100 µM on PPAR-gamma.
`Cc1cc(SCc2sc(-c3ccc(C(F)(F)F)cc3)nc2C)ccc1OCC(=O)O` [GW516]: in assay [1], the “% change in body weight (d0 vs d40)” value came out at 10.6%, the Insulin worked out at 1.3 ± 0.3 ng/mL and the TG turned out to be 268 ± 56 mg/dL.
